Reference: paper PMC10414684, “Novel integrated computational AMP discovery approaches highlight diversity in the helminth AMP repertoire” (PLOS Pathogens, 2023)
Values after ≈ are worked out from the molar mass of the structure shown. Where a name gives a salt, the structure may show the parent alone. Read-outs that look alike come from different tables or passages of the source. No end group written: not given here.

Columns and labels:
E. coli K12 = assay: Minimum inhibitory concentration, microbroth dilution; type: cell-based, Escherichia coli; conditions: 5x10^5 CFU/ml, 37°C, 18–24 h, visible growth; for MIC E. coli K12 (-): peptides 512–0.25μg/ml, >70% purity (Cecropin P1 >95%), Ciprofloxacin 32–0.02μg/ml; for MIC: read-out: MIC E. coli K12 (-), μM in brackets
Protocol: (§1) Prioritised helminth AMP-LPs were synthesised at >70% purity (Genosphere Biotechnologies). […] Peptides and control antibiotics [Ciprofloxacin (for gram-negative species; Sigma-Aldrich) and Vancomycin hydrochloride (for gram-positive species; Sigma-Aldrich)] were dissolved in sterile ultrapure water at a concentration of 5.12mg/ml. Minimum inhibitory concentrations (MICs) were determined for gram-positive and gram-negative bacterial isolates (see Table 3 for species) using microbroth dilution assays as described previously. Briefly, a single colony from each bacterial species was inoculated in cation-adjusted Mueller Hinton Broth (MHB) and grown for 18–24 hours at 37°C with shaking (225rpm) before being adjusted to a final bacterial density of 5x10^5 colony forming units (CFU) per ml. Peptides and Vancomycin hydrochloride were diluted using sterile MHB in sterile U-bottom 96 well polypropylene microplates (Greiner Bio One, UK) to give a concentration gradient ranging from 512–0.25μg/ml. Ciprofloxacin was further diluted in sterile MHB to give a concentration gradient ranging from 32–0.02μg/ml. Microplates were incubated at 37°C for 18–24 hours. Plates were assessed for visible growth and the MIC was defined as the lowest concentration of peptide or antibiotic that inhibited visible growth of a bacterial culture after an 18–24-hour incubation. MIC data were validated by positive and negative control antibiotic MIC data for each bacterial isolate.

A. baumannii DSM 30007 = assay: as above; type: cell-based, Acinetobacter baumannii; conditions: 5x10^5 CFU/ml, 37°C, 18–24 h, visible growth; for MIC A. baumannii DSM 30007 (-): peptides 512–0.25μg/ml, >70% purity (Cecropin P1 >95%), Ciprofloxacin 32–0.02μg/ml; for MIC: read-out: MIC A. baumannii DSM 30007 (-), μM in brackets
Protocol: as §1

P. aeruginosa PA01 = assay: as above; type: cell-based, Pseudomonas aeruginosa; conditions: 5x10^5 CFU/ml, 37°C, 18–24 h, visible growth; for MIC P. aeruginosa PA01 (-): peptides 512–0.25μg/ml, >70% purity (Cecropin P1 >95%), Ciprofloxacin 32–0.02μg/ml; for MIC: read-out: MIC P. aeruginosa PA01 (-), μM in brackets
Protocol: as §1

S. aureus EMRSA-15 = assay: microbe, parasite or virus in culture; type: cell-based, Staphylococcus aureus
Protocol: as §1

S. aureus RN4220 = assay: microbe, parasite or virus in culture; type: cell-based, Staphylococcus aureus; conditions: for MIC S. aureus RN4220 (+) / MIC S. aureus RN4220 (+), μM in brackets: Methicillin-Sensitive, microbroth dilution, cation-adjusted MHB, 5x10^5 CFU/ml, 37°C, 18–24 h, visible growth; for MIC S. aureus RN4220 (+): peptides and Vancomycin hydrochloride 512–0.25μg/ml, peptides >70% purity (Cecropin P1 >95%)
Protocol: as §1

E. faecalis JH2-2 = assay: microbe, parasite or virus in culture; type: cell-based, Enterococcus faecalis
Protocol: as §1

[1] = Methicillin-resistant, microbroth dilution, cation-adjusted MHB, 5x10^5 CFU/ml, 37°C, 18–24 h, visible growth, peptides and Vancomycin hydrochloride 512–0.25μg/ml, peptides >70% purity (Cecropin P1 >95%)
[2] = microbroth dilution, cation-adjusted MHB, 5x10^5 CFU/ml, 37°C, 18–24 h, visible growth, peptides and Vancomycin hydrochloride 512–0.25μg/ml, peptides >70% purity (Cecropin P1 >95%)
[3] = Methicillin-resistant, microbroth dilution, cation-adjusted MHB, 5x10^5 CFU/ml, 37°C, 18–24 h, visible growth
[4] = microbroth dilution, cation-adjusted MHB, 5x10^5 CFU/ml, 37°C, 18–24 h, visible growth

## AVAHVALKLATSPVGKVALNAMVPGAGTVLGVAAKHHGMVKKLVRV [nAMP-LP-224, nematode AMP-like peptide selected for synthesis and MIC screening]
E. coli K12; cation-adjusted MHB
  MIC E. coli K12 (-): / (/ indicates that there was no activity at the highest concentration of peptide used (512μg/ml))
A. baumannii DSM 30007; cation-adjusted MHB
  MIC A. baumannii DSM 30007 (-): / (/ indicates that there was no activity at the highest concentration of peptide used (512μg/ml))
P. aeruginosa PA01; cation-adjusted MHB
  MIC P. aeruginosa PA01 (-): / (/ indicates that there was no activity at the highest concentration of peptide used (512μg/ml))
S. aureus EMRSA-15; [1]
  MIC S. aureus EMRSA-15 (+): / (/ indicates that there was no activity at the highest concentration of peptide used (512μg/ml))
S. aureus RN4220
  MIC S. aureus RN4220 (+): / (/ indicates that there was no activity at the highest concentration of peptide used (512μg/ml))
E. faecalis JH2-2; [2]
  MIC E. faecalis JH2-2 (+): / (/ indicates that there was no activity at the highest concentration of peptide used (512μg/ml))

## GKKDEGKEVVDDKAGDKKGMKKSFRRQQGWIWIYW [nAMP-LP-1231, nematode AMP-like peptide selected for synthesis and MIC screening]
E. coli K12; cation-adjusted MHB
  MIC E. coli K12 (-): / (/ indicates that there was no activity at the highest concentration of peptide used (512μg/ml))
A. baumannii DSM 30007; cation-adjusted MHB
  MIC A. baumannii DSM 30007 (-): / (/ indicates that there was no activity at the highest concentration of peptide used (512μg/ml))
P. aeruginosa PA01; cation-adjusted MHB
  MIC P. aeruginosa PA01 (-): / (/ indicates that there was no activity at the highest concentration of peptide used (512μg/ml))
S. aureus EMRSA-15; [1]
  MIC S. aureus EMRSA-15 (+): / (/ indicates that there was no activity at the highest concentration of peptide used (512μg/ml))
S. aureus RN4220
  MIC S. aureus RN4220 (+): / (/ indicates that there was no activity at the highest concentration of peptide used (512μg/ml))
E. faecalis JH2-2; [2]
  MIC E. faecalis JH2-2 (+): / (/ indicates that there was no activity at the highest concentration of peptide used (512μg/ml))

## QWWGGRGGGRWRGGWRGGWRGRGRGWW [nAMP-LP-104]
S. aureus EMRSA-15; EMRSA-15
  MIC S. aureus EMRSA-15 (+): 256 µg/mL
S. aureus RN4220
  MIC S. aureus RN4220 (+): 256 µg/mL
E. faecalis JH2-2; JH2-2
  MIC E. faecalis JH2-2 (+): 256 µg/mL

## DGCPKRVAIAVLKAPYKIFKKEANKGLFKLADKIHGVRY [fAMP-LP-123, flatworm AMP-like peptide selected for synthesis and MIC screening]
E. coli K12; cation-adjusted MHB
  MIC E. coli K12 (-): / (/ indicates that there was no activity at the highest concentration of peptide used (512μg/ml))
A. baumannii DSM 30007; cation-adjusted MHB
  MIC A. baumannii DSM 30007 (-): / (/ indicates that there was no activity at the highest concentration of peptide used (512μg/ml))
P. aeruginosa PA01; cation-adjusted MHB
  MIC P. aeruginosa PA01 (-): / (/ indicates that there was no activity at the highest concentration of peptide used (512μg/ml))
S. aureus EMRSA-15; [1]
  MIC S. aureus EMRSA-15 (+): / (/ indicates that there was no activity at the highest concentration of peptide used (512μg/ml))
E. faecalis JH2-2; [2]
  MIC E. faecalis JH2-2 (+): / (/ indicates that there was no activity at the highest concentration of peptide used (512μg/ml))

## EYLRKVKDAGAGKAKGGGAPGAESKSGKKSGSAETAASGGAKKGKKK [nAMP-LP-98, nematode AMP-like peptide selected for synthesis and MIC screening]
E. coli K12; cation-adjusted MHB
  MIC E. coli K12 (-): / (/ indicates that there was no activity at the highest concentration of peptide used (512μg/ml))
A. baumannii DSM 30007; cation-adjusted MHB
  MIC A. baumannii DSM 30007 (-): / (/ indicates that there was no activity at the highest concentration of peptide used (512μg/ml))
P. aeruginosa PA01; cation-adjusted MHB
  MIC P. aeruginosa PA01 (-): / (/ indicates that there was no activity at the highest concentration of peptide used (512μg/ml))
S. aureus EMRSA-15; [1]
  MIC S. aureus EMRSA-15 (+): / (/ indicates that there was no activity at the highest concentration of peptide used (512μg/ml))
S. aureus RN4220
  MIC S. aureus RN4220 (+): / (/ indicates that there was no activity at the highest concentration of peptide used (512μg/ml))
E. faecalis JH2-2; [2]
  MIC E. faecalis JH2-2 (+): / (/ indicates that there was no activity at the highest concentration of peptide used (512μg/ml))

## FDKNLLKKGKKSSAYEKHPISRRVLRFE [nAMP-LP-764, nematode AMP-like peptide selected for synthesis and MIC screening]
E. coli K12; cation-adjusted MHB
  MIC E. coli K12 (-): / (/ indicates that there was no activity at the highest concentration of peptide used (512μg/ml))
A. baumannii DSM 30007; cation-adjusted MHB
  MIC A. baumannii DSM 30007 (-): / (/ indicates that there was no activity at the highest concentration of peptide used (512μg/ml))
P. aeruginosa PA01; cation-adjusted MHB
  MIC P. aeruginosa PA01 (-): / (/ indicates that there was no activity at the highest concentration of peptide used (512μg/ml))
S. aureus EMRSA-15; [1]
  MIC S. aureus EMRSA-15 (+): / (/ indicates that there was no activity at the highest concentration of peptide used (512μg/ml))
S. aureus RN4220
  MIC S. aureus RN4220 (+): / (/ indicates that there was no activity at the highest concentration of peptide used (512μg/ml))
E. faecalis JH2-2; [2]
  MIC E. faecalis JH2-2 (+): / (/ indicates that there was no activity at the highest concentration of peptide used (512μg/ml))

## GTFWKAVGAGALIGGGAALLSKAFK[nh2] [nAMP-LP-18, nematode AMP-like peptide identified in four Meloidogyne species]
E. coli K12; cation-adjusted MHB
  MIC E. coli K12 (-): / (/ indicates that there was no activity at the highest concentration of peptide used (512μg/ml))
A. baumannii DSM 30007; cation-adjusted MHB
  MIC A. baumannii DSM 30007 (-): / (/ indicates that there was no activity at the highest concentration of peptide used (512μg/ml))
P. aeruginosa PA01; cation-adjusted MHB
  MIC P. aeruginosa PA01 (-): / (/ indicates that there was no activity at the highest concentration of peptide used (512μg/ml))
S. aureus EMRSA-15; [3]
  MIC S. aureus EMRSA-15 (+), μM in brackets: 27 µM
S. aureus EMRSA-15; [1]
  MIC S. aureus EMRSA-15 (+): 64 µg/mL
S. aureus RN4220
  MIC S. aureus RN4220 (+), μM in brackets: 27 µM
  MIC S. aureus RN4220 (+): 64 µg/mL
E. faecalis JH2-2; [4]
  MIC E. faecalis JH2-2 (+), μM in brackets: 27 µM
E. faecalis JH2-2; [2]
  MIC E. faecalis JH2-2 (+): 64 µg/mL

## O=C(O)c1cn(C2CC2)c2cc(N3CCNCC3)c(F)cc2c1=O [Ciprofloxacin, reference compound]
E. coli K12; Escherichia coli, K12, cation-adjusted MHB
  MIC: 0.2 µM (≈ 0.0663 µg/mL)
E. coli K12; cation-adjusted MHB
  MIC E. coli K12 (-): 0.0625 µg/mL (≈ 0.189 µM)
A. baumannii DSM 30007; Acinetobacter baumannii, DSM30007, cation-adjusted MHB
  MIC: 3 µM (≈ 0.994 µg/mL)
A. baumannii DSM 30007; cation-adjusted MHB
  MIC A. baumannii DSM 30007 (-): 1 µg/mL (≈ 3.02 µM)
P. aeruginosa PA01; Pseudomonas aeruginosa, PA01, cation-adjusted MHB
  MIC: 2 µM (≈ 0.663 µg/mL)
P. aeruginosa PA01; cation-adjusted MHB
  MIC P. aeruginosa PA01 (-): 0.5 µg/mL (≈ 1.51 µM)

## CN[C@H](CC(C)C)C(=O)N[C@H]1C(=O)N[C@@H](CC(N)=O)C(=O)N[C@H]2C(=O)N[C@H]3C(=O)N[C@H](C(=O)N[C@H](C(=O)O)c4cc(O)cc(O)c4-c4cc3ccc4O)[C@H](O)c3ccc(c(Cl)c3)Oc3cc2cc(c3O[C@@H]2O[C@H](CO)[C@@H](O)[C@H](O)[C@H]2O[C@H]2C[C@](C)(N)[C@H](O)[C@H](C)O2)Oc2ccc(cc2Cl)[C@H]1O [Vancomycin hydrochloride, reference compound]
S. aureus EMRSA-15; [1]
  MIC S. aureus EMRSA-15 (+): 2 µg/mL
S. aureus EMRSA-15; Staphylococcus aureus, EMRSA15, read-out: MIC S. aureus EMRSA-15 (+), μM in brackets
  MIC: 1 µM
S. aureus RN4220
  MIC S. aureus RN4220 (+): 1 µg/mL
S. aureus RN4220; Staphylococcus aureus, RN4220, read-out: MIC S. aureus RN4220 (+), μM in brackets
  MIC: 0.7 µM
E. faecalis JH2-2; Enterococcus faecalis, JH22, read-out: MIC E. faecalis JH2-2 (+), μM in brackets
  MIC: 1 µM
E. faecalis JH2-2; [2]
  MIC E. faecalis JH2-2 (+): 2 µg/mL

## GAGRWRANRRANRRRFARRLRRNQRRAAQKRRAHARRHQRNLRRAARKIRRIQRR[nh2] (GAGRWRANRRANRRRFARRLRRNQRRAAQKRRAHARRHQRNLRRAARKIRRIQRR-NH2) [nAMP-LP-298, arginine-rich nematode AMP-like peptide conserved across four Clade 9/V gastrointestinal parasites]
E. coli K12; cation-adjusted MHB
  MIC E. coli K12 (-): 64 µg/mL
  MIC: 9 µM
A. baumannii DSM 30007; cation-adjusted MHB
  MIC A. baumannii DSM 30007 (-): 32 µg/mL
  MIC: 5 µM
P. aeruginosa PA01; cation-adjusted MHB
  MIC P. aeruginosa PA01 (-): 64 µg/mL
  MIC: 9 µM
S. aureus EMRSA-15; [3]
  MIC S. aureus EMRSA-15 (+), μM in brackets: 9 µM
S. aureus EMRSA-15; [1]
  MIC S. aureus EMRSA-15 (+): 64 µg/mL
S. aureus RN4220
  MIC S. aureus RN4220 (+), μM in brackets: 5 µM
  MIC S. aureus RN4220 (+): 32 µg/mL
E. faecalis JH2-2; [4]
  MIC E. faecalis JH2-2 (+), μM in brackets: 9 µM
E. faecalis JH2-2; [2]
  MIC E. faecalis JH2-2 (+): 64 µg/mL
